{
  "source": "paper PMC4627230",
  "about": "“Identification of TAX2 peptide as a new unpredicted anti-cancer agent” (Oncotarget, 2015)",
  "key": {"TSP-1 binding to VEGF": {"system": "TSP-1 binding to VEGF", "assay": "Co-immunoprecipitation TSP-1 with VEGF", "type": "cell-based, human", "details": "HUVECs, 100 μM; conditioned media", "procedure": "Protein lysates prepared in ice-cold lysis buffer or conditioned media were subjected to immunoprecipitation assay using the Pierce Co-IP kit (Thermo Fisher Scientific) according to the manufacturer's protocol. 10 μg of antibody (anti CD47, anti-CD36, anti-FGF2, anti-VEGF, anti-β1 integrin and anti-LRP1 heavy chain) or non-specific IgGs were incubated with the delivered resin and covalently coupled. The antibody-coupled resin was incubated with whole HUVEC protein lysate overnight at 4°C under gentle agitation (no cross-linker was used to stabilize protein complexes before HUVEC lysis). Then the resin was washed and the protein complexes bound to the antibody were eluted. Immunoprecipitated protein complexes were solubilized under denaturing and reducing conditions, heated to 100°C for 5 min and analyzed by immunoblotting as described above. […]\nreceptors. HUVECs were treated with TAX2 (100 μM) or scrambled peptide (Ctrl, 100 μM). FGF-2 and VEGF were immunoprecipitated from conditioned media using anti-FGF-2 (clone C-18) and anti-VEGF (clone C-1), respectively. β1 integrin and LRP-1 were immunoprecipitated from total protein lysates using anti-β1 integrin (clone BV7) and anti-LRP-1 heavy chain (clone 8G1), respectively. […] Histogram represents the quantification of relative ligand-bound TSP-1 under TAX2 treatment as compared to control. […]"}, "TSP-1": {"system": "TSP-1", "assay": "Surface plasmon resonance", "type": "binding", "details": "data not shown"}, "[1]": {"system": "CD36-containing complex / activated VEGFR2", "assay": "CD36 co-immunoprecipitation of activated VEGFR2", "type": "cell-based, human", "details": "HUVECs, 100 μM for 12 h, then 30 ng/mL VEGF 5 min", "procedure": "Figure 3 Anti-angiogenic properties of TAX2 are mediated by TSP-1 binding to CD36 A. Expression of CD36 in HUVECs was assessed by immunoblotting (left panel) and immunofluorescence staining (right panel, red). Nuclei were counterstained with DAPI (blue). B. HUVECs were incubated with 100 μM cyclic TAX2 or in control conditions for 24 h. Then, CD36-containing complexes were co-immunoprecipitated from whole cell extracts (non-specific IgGs were used as a negative control for immunoprecipitation). Immunocomplexes were submitted to SDS-PAGE and immunoblotted (IB) by using specific antibodies for TSP-1 and CD36. The presence of TSP-1 in immunocomplexes was quantified by densitometric analysis relative to immunoprecipitated CD36. C. VEGFR2 phosphorylation induced by VEGF in the presence of TAX2. After overnight serum starvation, HUVECs were pre-treated with 100 μM TAX2 or control for 12 h, then incubated with 30 ng/mL VEGF for 5 min. […] Data are expressed as the mean ± SE (n = 3; *p < 0.05, ANOVA). […] Quantification of total tube-like network length was realized using ImageJ software E. Branching points F. and nodal structures G. were numbered using the S.CORE web-based system. Data are expressed as the mean ± SE (n = 3; *p < 0.05, ANOVA). […]"}, "C57BL/6 mice": {"system": "C57BL/6 mice", "assay": "Tolerability in melanoma-bearing mice (μCT of healthy organs, dissection)", "type": "in vivo, mouse", "details": "10 mg/kg i.p. days 3, 5, 7, dissections, data not shown", "procedure": "For the subcutaneous melanoma tumor model, suspensions of B16F1 cells (2.5 × 10^5 cells in 100 μL RPMI-1640 medium) were subcutaneously injected into the left flank of different randomized series of syngeneic C57BL/6 mice (n = 8–10 per group), as previously described. Intraperitoneal administrations of peptide (10 mg/kg mouse weight) or controls (physiological serum 0.9% (w/v) NaCl or a scrambled peptide) were performed at days 3, 5 and 7. In human pancreatic carcinoma xenograft experiments, 3 × 10^6 MIA PaCa-2 cells/mouse were implanted subcutaneously into the left flank of BALB/C athymic nude mice, then TAX2 intraperitoneal treatments (10 mg/kg mouse weight) were performed 3 times a week during 4 weeks starting at day 10 after tumor cells inoculation. Tumor volume was determined according to v = 0.5 A × B^2, where A denotes the largest dimension of the tumor and B represents the smallest dimension. […]\nAnimals were anesthetized by isoflurane (Forene, Abbott France, Rungis, France) inhalation (3% for induction and 1–1.5% for maintenance) and then after placed in a carbon fibers bed. […] Analysis of reconstructed images and quantification of the vascular network were performed using Amira 5.4.3 software."}},
  "note": "Entries after “also recorded” stand apart in the source; their conditions may differ.",
  "data": [
    {"sequence": "CEVSQLLKGDAC (disulfide) [TAX2, CD47-derived cyclic disulfide dodecapeptide …]", "values": [
      {"measurement": "TSP-1 binding to VEGF", "setting": "TSP-1 binding to VEGF", "value": "does not affect"},
      {"measurement": "binding to TSP-1 by surface plasmon resonance", "setting": "TSP-1", "value": "confirmed"},
      {"measurement": "association of activated VEGFR2 to a CD36-containing complex", "setting": "[1]", "value": "association of activated VEGFR2 to a CD36-containing complex"},
      {"measurement": "thrombosis, hemorrhage or embolism in melanoma-bearing mice", "setting": "C57BL/6 mice", "value": "neither μCT imaging of healthy organs nor mice dissections highlighted any sign of thrombosis, hemorrhage or embolism; also recorded: no signs of thrombosis, hemorrhage or embolism were observed in healthy organs"}
    ]}
  ]
}
